Measurements reported in patent US20130096159A1, “INHIBITORS OF HUMAN 12-LIPOXYGENASE” (The United States of America, as represented the Secretary …, priority 2010, published 2013).

Key:
Type in all cases: cell-based
Human islets = experiment: gene expression in cytokine-stimulated human islets, Taqman real time PCR; conditions: TNF-α
Protocol: Human islets were incubated for 22 hours following stimulation with the inflammatory cytokines IFN-γ, TNF-α, and IL-1-β alone or in the presence of compound 1 or compound 9. Control islets were incubated for 22 hours in the absence of inflammatory cytokines or compounds. Following the incubation, gene expression for 12-LO, 15-LO, 5-LO, IL-12p40, and IFN-γ were determined using Taqman real time PCR.

[1] = test system: integrin αIIbβ3 in human platelets; experiment: activation of integrin αIIbβ3, PAC1 binding by flow cytometry; conditions: vs agonists alone (thrombin, PAR1-AP, PAR4-AP, ADP); FIG. 5
Protocol: (§1) Human platelets were obtained from healthy volunteers from within the Thomas Jefferson University community and the Philadelphia area. These studies were approved by the Thomas Jefferson University Institutional Review Board. Informed consent was obtained from all donors before blood draw. Blood was centrifuged at 200 g for 15 min at room temperature. Platelet-rich plasma was transferred into a conical tube containing a 10% acid citrate dextrose solution (39 mM citric acid, 75 mM sodium citrate, and 135 mM glucose, pH 7.4) and centrifuged at 2000 g for 15 min at room temperature. Platelets were resuspended in Tyrode's buffer (12 mM NaHCO3, 127 mM NaCl, 5 mM KCl, 0.5 mM NaH2PO4, 1 mM MgCl2, 5 mM glucose, and 10 mM HEPES), and the final platelet concentration was adjusted as indicated after counting using a Coulter counter (Beckman Coulter, Fullerton, Calif.). Reported results are the data obtained using platelets from at least three different subjects.
Washed platelets were obtained as described in Example 10. Flow cytometry was used to measure the activation of integrin αIIbβ3. Specifically, PAC1 (an antibody which only binds to αIIbβ3 when the protein is in its active conformation) binding was used to selectively detect the conformational activation of αIIbβ3. […] The fluorescence intensity of 10,000 platelets was immediately measured using a C6 Accuri flow cytometer. […]

human platelets = experiment: platelet aggregation in response to agonists, light transmission aggregometry; conditions: agonists thrombin, arachidonic acid, PAR1-AP, PAR4-AP, ADP, collagen; 10 min pretreatment; FIG. 2
Protocol: as §1
Washed platelets were obtained as described in Example 10. […] Platelets were pretreated with compound 1 for 10 min and aggregation in response to stimulation by the agonists thrombin, PAR1-AP, PAR4-AP, ADP and collagen at various agonist concentrations was measured via the light transmission aggregometry method using a lumi-aggregometer model 700D (Chrono-log Corp., Havertown, Pa.) with stirring at 1100 rpm at 37° C. […]

[2] = relative to control islets, IFN-γ, IL-1-β stimulation, 22 hours

For `CCC(=O)NC(c1cccs1)c1cc([N+](=O)[O-])c2cccnc2c1O` (stereo not drawn) [Compound 1, N-((8-hydroxy-5-nitroquinolin-7-yl)(thiophen-2-yl)methyl)propionamide], the “reduction in IFN-γ expression” value (Human islets; induced by IFN-γ, IL-1-β) was 4 fold, the “reduction in IL-12p40 mRNA expression” value (Human islets; induced by IFN-γ, IL-1-β) was 40 fold and the “Change in Gene Expression 5-LO” value (Human islets; [2]) was 1. For the same molecule, the “Change in Gene Expression 12-LO” value (Human islets; [2]) was 13, the “Change in Gene Expression 15-LO” value (Human islets; [2]) was 1 and the “Change in Gene Expression IFN-γ” value (Human islets; [2]) was 25. For the same molecule, the “Change in Gene Expression IL-12p40” value (Human islets; [2]) was 3, the “binding of PAC1 on the surface of the platelets” value [1] was “decreased binding of PAC1” and the “dose response curves for platelet aggregation” value (human platelets) was “substantially unaffected”.
